Experimental data published in PubChem BioAssay AID2060897 (Molecular Pharmacology Branch, DTP, NCI, 2025).

System: 966289-007-R4-J1-PDC complex spheroid viability
Test: Anticancer human tumor 966289-007-R4-J1-PDC patient-derived pancreatic adenocarcinoma cell line growth inhibition [RAS]
Details: for IC50: curve of first compound; for viability, T/C: stronger effect = lower value
Procedure, shortened: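 Multi-cell-type spheroids: tumor cells plus HUVEC endothelial cells and mesenchymal stem cells. RAS-pathway inhibitors were combined with targeted agents, each dosed in half-log steps down from clinical Cmax, or from 10 microM when Cmax was unknown.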

[1] = second compound 0.0316 µM, first compound 0.0316 µM
[2] = second compound 0.0316 µM, first compound 0.1 µM
[3] = second compound 0.0316 µM, first compound 0.316 µM
[4] = second compound 0.0316 µM, first compound 1 µM
[5] = second compound 0.0316 µM, first compound 3.16 µM
[6] = second compound 0.0316 µM, first compound 10 µM
[7] = second compound 0.1 µM, first compound 0.0316 µM
[8] = second compound 0.1 µM, first compound 0.1 µM
[9] = second compound 0.1 µM, first compound 0.316 µM
[10] = second compound 0.1 µM, first compound 1 µM
[11] = second compound 0.1 µM, first compound 3.16 µM
[12] = second compound 0.1 µM, first compound 10 µM
[13] = second compound 0.316 µM, first compound 0.0316 µM
[14] = second compound 0.316 µM, first compound 0.1 µM
[15] = second compound 0.316 µM, first compound 0.316 µM
[16] = second compound 0.316 µM, first compound 1 µM
[17] = second compound 0.316 µM, first compound 3.16 µM
[18] = second compound 0.316 µM, first compound 10 µM
[19] = second compound 1 µM, first compound 0.0316 µM
[20] = second compound 1 µM, first compound 0.1 µM
[21] = second compound 1 µM, first compound 0.316 µM
[22] = second compound 1 µM, first compound 1 µM
[23] = second compound 1 µM, first compound 3.16 µM
[24] = second compound 1 µM, first compound 10 µM
[25] = second compound 3.16 µM, first compound 0.0316 µM
[26] = second compound 3.16 µM, first compound 0.1 µM
[27] = second compound 3.16 µM, first compound 0.316 µM
[28] = second compound 3.16 µM, first compound 1 µM
[29] = second compound 3.16 µM, first compound 3.16 µM
[30] = second compound 3.16 µM, first compound 10 µM
[31] = second compound 10 µM, first compound 0.0316 µM
[32] = second compound 10 µM, first compound 0.1 µM
[33] = second compound 10 µM, first compound 0.316 µM
[34] = second compound 10 µM, first compound 1 µM
[35] = second compound 10 µM, first compound 3.16 µM
[36] = second compound 10 µM, first compound 10 µM
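Further: spheroids exposed to agents for one week before readout.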
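Wherever viability, T/C is given: percent viability relative to DMSO vehicle control wells as 100%.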

CC1(O)CCCC1n1c(=O)c(C(F)F)cc2cnc(NC3CCN(S(C)(=O)=O)CC3)nc21 (centres undefined) + C#Cc1c(F)ccc2cc(O)cc(-c3ncc4c(N5CC6CCC(C5)N6)nc(OCC56CCCN5CC(F)C6)nc4c3F)c12
IC50 (second compound 0.0316 µM): 0.142 µM
IC50 (second compound 0.1 µM): 0.181 µM
IC50 (second compound 0.316 µM): 0.232 µM
IC50 (second compound 1 µM): 0.22 µM
IC50 (second compound 3.16 µM): 0.221 µM
IC50 (second compound 10 µM): 0.115 µM
viability, T/C [1]: 138%
viability, T/C [2]: 57%
viability, T/C [3]: 28.4%
viability, T/C [4]: 33.5%
viability, T/C [5]: 32.1%
viability, T/C [6]: 5.74%
viability, T/C [7]: 124%
viability, T/C [8]: 70.9%
viability, T/C [9]: 26.7%
viability, T/C [10]: 33.5%
viability, T/C [11]: 27.7%
viability, T/C [12]: 5.83%
viability, T/C [13]: 128%
viability, T/C [14]: 71.8%
viability, T/C [15]: 33.9%
viability, T/C [16]: 35.5%
viability, T/C [17]: 31.4%
viability, T/C [18]: 5.81%
viability, T/C [19]: 116%
viability, T/C [20]: 72.4%
viability, T/C [21]: 30.1%
viability, T/C [22]: 33%
viability, T/C [23]: 33.2%
viability, T/C [24]: 5.07%
viability, T/C [25]: 128%
viability, T/C [26]: 73.5%
viability, T/C [27]: 30.6%
viability, T/C [28]: 32.5%
viability, T/C [29]: 33.3%
viability, T/C [30]: 5.29%
viability, T/C [31]: 106%
viability, T/C [32]: 47.8%
viability, T/C [33]: 33%
viability, T/C [34]: 30.2%
viability, T/C [35]: 38.3%
viability, T/C [36]: 0.93%

CCC(CC)c1cc(NC2CCC(N)C2)n2nccc2n1 (centres undefined) + C#Cc1c(F)ccc2cc(O)cc(-c3ncc4c(N5CC6CCC(C5)N6)nc(OCC56CCCN5CC(F)C6)nc4c3F)c12
IC50 (second compound 0.0316 µM): 1.8 µM
IC50 (second compound 0.1 µM): 1.87 µM
IC50 (second compound 0.316 µM): 1.88 µM
IC50 (second compound 1 µM): 1.88 µM
IC50 (second compound 3.16 µM): 1.9 µM
IC50 (second compound 10 µM): 1.81 µM
viability, T/C [1]: 99.4%
viability, T/C [2]: 87.7%
viability, T/C [3]: 97.2%
viability, T/C [4]: 111%
viability, T/C [5]: 2.83%
viability, T/C [6]: 2.78%
viability, T/C [7]: 91.1%
viability, T/C [8]: 97.8%
viability, T/C [9]: 106%
viability, T/C [10]: 133%
viability, T/C [11]: 2.38%
viability, T/C [12]: 2.61%
viability, T/C [13]: 93%
viability, T/C [14]: 95.1%
viability, T/C [15]: 106%
viability, T/C [16]: 137%
viability, T/C [17]: 2.97%
viability, T/C [18]: 2.55%
viability, T/C [19]: 90.4%
viability, T/C [20]: 93.1%
viability, T/C [21]: 116%
viability, T/C [22]: 127%
viability, T/C [23]: 2.97%
viability, T/C [24]: 2.86%
viability, T/C [25]: 100%
viability, T/C [26]: 94.9%
viability, T/C [27]: 116%
viability, T/C [28]: 126%
viability, T/C [29]: 2.6%
viability, T/C [30]: 2.57%
viability, T/C [31]: 86.1%
viability, T/C [32]: 88.7%
viability, T/C [33]: 111%
viability, T/C [34]: 122%
viability, T/C [35]: 0.62%
viability, T/C [36]: 0.86%
